Results from PubChem BioAssay (NCI).
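Interpolation was linear, between the two tested concentrations surrounding the appropriate level; five concentrations were tested over 48 hours in 96-well plates. Abbreviation: GI50, concentration required for 50% inhibition of growth. At the TGI there is no net growth.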

Legend:
Assay in all cases: NCI tumour cell line growth inhibition, 48 h
DU-145 prostate = system: DU-145 prostate
HCT-116 colon = system: HCT-116 colon
KM12 colon = system: KM12 colon
MOLT-4 leukemia = system: MOLT-4 leukemia
NCI-H226 lung = system: NCI-H226 lung
NCI-H23 lung = system: NCI-H23 lung
NCI/ADR-RES ovarian = system: NCI/ADR-RES ovarian
SF-295 CNS = system: SF-295 CNS
SF-539 CNS = system: SF-539 CNS
SN12C renal = system: SN12C renal

Compound: O=[N+]([O-])C[C@@]12O[C@]3(O)C4C5CC(C6C5C3C61)C42 (stereo not given in full)
- TGI (DU-145 prostate): > 100 µM
- TGI (HCT-116 colon): > 100 µM
- TGI (KM12 colon): > 100 µM
- TGI (MOLT-4 leukemia): > 100 µM
- TGI (NCI-H226 lung): > 100 µM
- TGI (NCI-H23 lung): > 100 µM
- TGI (NCI/ADR-RES ovarian): > 100 µM
- TGI (SF-295 CNS): > 100 µM
- TGI (SF-539 CNS): > 100 µM
- TGI (SN12C renal): > 100 µM

Compound: C/C=C/C(CC(O)(C(F)(F)F)C(F)(F)F)=N/NC(N)=S
- TGI (DU-145 prostate): > 10 µM
- TGI (HCT-116 colon): > 10 µM
- TGI (KM12 colon): > 10 µM
- TGI (MOLT-4 leukemia): > 10 µM
- TGI (NCI-H226 lung): > 10 µM
- TGI (NCI-H23 lung): > 10 µM
- TGI (NCI/ADR-RES ovarian): > 10 µM
- TGI (SF-295 CNS): > 10 µM
- TGI (SF-539 CNS): > 10 µM
- TGI (SN12C renal): > 10 µM

Compound: COC[C@@H](N=CC(C)(C)C)C(C)C
- TGI (DU-145 prostate): > 100 µM
- TGI (HCT-116 colon): > 100 µM
- TGI (KM12 colon): > 100 µM
- TGI (MOLT-4 leukemia): > 100 µM
- TGI (NCI-H226 lung): > 100 µM
- TGI (NCI-H23 lung): > 100 µM
- TGI (NCI/ADR-RES ovarian): > 100 µM
- TGI (SF-295 CNS): > 100 µM
- TGI (SF-539 CNS): > 100 µM
- TGI (SN12C renal): > 100 µM

Compound: NS(=O)(=O)c1ccc(/C=C/c2ccc(O)c(O)c2)cc1
- TGI (DU-145 prostate): > 100 µM
- TGI (HCT-116 colon): > 100 µM
- GI50 (KM12 colon): 18.2 µM
- TGI (KM12 colon): 48.9 µM
- GI50 (MOLT-4 leukemia): 12.8 µM
- TGI (MOLT-4 leukemia): 53.7 µM
- GI50 (NCI-H226 lung): 14 µM
- TGI (NCI-H226 lung): 60.2 µM
- GI50 (NCI-H23 lung): 25.9 µM
- TGI (NCI-H23 lung): 79.3 µM
- TGI (NCI/ADR-RES ovarian): 71.7 µM
- TGI (SF-295 CNS): 74.3 µM
- GI50 (SF-539 CNS): 14.2 µM
- TGI (SF-539 CNS): 40.2 µM
- TGI (SN12C renal): 60.9 µM

Compound: Brc1ccc2[nH]cc(-c3csc(-c4c[nH]c5ccccc45)n3)c2c1
- TGI (DU-145 prostate): 9.15 µM
- TGI (HCT-116 colon): 6.66 µM
- TGI (KM12 colon): 5.69 µM
- TGI (MOLT-4 leukemia): 6.18 µM
- TGI (NCI-H226 lung): 4.56 µM
- TGI (NCI-H23 lung): 8.21 µM
- TGI (NCI/ADR-RES ovarian): 10.5 µM
- TGI (SF-295 CNS): 6.32 µM
- TGI (SF-539 CNS): 16.7 µM
- TGI (SN12C renal): 14.2 µM

Compound: COc1cc(OC)cc(Oc2nc3ccccc3nc2C(F)(F)F)c1
- TGI (DU-145 prostate): > 100 µM
- TGI (HCT-116 colon): > 100 µM
- TGI (KM12 colon): > 100 µM
- TGI (MOLT-4 leukemia): > 100 µM
- TGI (NCI-H226 lung): > 100 µM
- TGI (NCI-H23 lung): > 100 µM
- TGI (NCI/ADR-RES ovarian): > 100 µM
- TGI (SF-295 CNS): > 100 µM
- TGI (SF-539 CNS): > 100 µM
- TGI (SN12C renal): > 100 µM

Compound: CC(=O)N(C(C)=O)c1ncc(-n2nc(-c3ccccc3)cc2-c2ccccc2)c(-c2ccccc2)n1
- TGI (DU-145 prostate): > 10 µM
- TGI (HCT-116 colon): > 10 µM
- TGI (KM12 colon): > 10 µM
- TGI (MOLT-4 leukemia): > 10 µM
- TGI (NCI-H226 lung): > 10 µM
- TGI (NCI-H23 lung): > 10 µM
- TGI (NCI/ADR-RES ovarian): > 10 µM
- TGI (SF-295 CNS): > 10 µM
- TGI (SF-539 CNS): > 10 µM
- TGI (SN12C renal): > 10 µM

Compound: CC(=O)OC(OC(C)=O)c1ccc2ccc3cccc4ccc1c2c34
- TGI (DU-145 prostate): 45.8 µM
- TGI (HCT-116 colon): 52.4 µM
- TGI (KM12 colon): > 100 µM
- TGI (MOLT-4 leukemia): > 100 µM
- TGI (NCI-H226 lung): 8.43 µM
- TGI (NCI-H23 lung): 45.1 µM
- TGI (NCI/ADR-RES ovarian): > 100 µM
- TGI (SF-295 CNS): 37.5 µM
- TGI (SF-539 CNS): > 100 µM
- TGI (SN12C renal): > 100 µM

Compound: O=[N+]([O-])c1ccc(CN(CCCl)OCCCl)cc1
- TGI (DU-145 prostate): > 100 µM
- TGI (HCT-116 colon): > 100 µM
- TGI (KM12 colon): > 100 µM
- TGI (MOLT-4 leukemia): > 100 µM
- TGI (NCI-H226 lung): > 100 µM
- TGI (NCI-H23 lung): > 100 µM
- TGI (NCI/ADR-RES ovarian): > 100 µM
- TGI (SF-295 CNS): > 100 µM
- TGI (SF-539 CNS): > 100 µM
- TGI (SN12C renal): > 100 µM

Compound: O=c1oc2ccc3ccccc3c2cc1-c1nc2ccccc2s1
- TGI (DU-145 prostate): > 100 µM
- TGI (HCT-116 colon): > 100 µM
- TGI (KM12 colon): > 100 µM
- TGI (MOLT-4 leukemia): > 21.6 µM
- TGI (NCI-H226 lung): > 100 µM
- TGI (NCI-H23 lung): > 100 µM
- TGI (NCI/ADR-RES ovarian): > 100 µM
- TGI (SF-295 CNS): > 100 µM
- TGI (SF-539 CNS): > 100 µM
- TGI (SN12C renal): > 100 µM

Compound: COC(=O)C1=C(OC(=O)/C(=C/c2ccc(Cl)cc2)c2ccc(Cl)cc2)C(C(=O)OC)[C@@]2(O)[C@@H](C(=O)OC)[C@H](C)C[C@@H]1[C@@H]2C(=O)OC (stereo not given in full)
- TGI (DU-145 prostate): > 100 µM
- TGI (HCT-116 colon): > 100 µM
- TGI (KM12 colon): > 100 µM
- TGI (MOLT-4 leukemia): 98.8 µM
- TGI (NCI-H226 lung): > 100 µM
- TGI (NCI-H23 lung): > 100 µM
- TGI (NCI/ADR-RES ovarian): > 100 µM
- TGI (SF-295 CNS): > 100 µM
- TGI (SF-539 CNS): > 100 µM
- TGI (SN12C renal): > 100 µM

Compound: O=C1C=CC(=O)c2c1ccc1c3ccccc3n(CCCCCn3c4ccccc4c4ccc5c(c43)C(=O)C=CC5=O)c21
- TGI (DU-145 prostate): > 100 µM
- TGI (HCT-116 colon): 25.7 µM
- TGI (KM12 colon): > 100 µM
- TGI (MOLT-4 leukemia): 5.11 µM
- TGI (NCI-H226 lung): > 100 µM
- TGI (NCI-H23 lung): 32.8 µM
- TGI (NCI/ADR-RES ovarian): > 64.9 µM
- TGI (SF-295 CNS): > 100 µM
- TGI (SF-539 CNS): 33.9 µM
- TGI (SN12C renal): 41.5 µM

Compound: CCOC(=O)NC(Nc1ccc(C)cc1)(C(F)(F)F)C(F)(F)F
- TGI (DU-145 prostate): > 100 µM
- TGI (HCT-116 colon): > 100 µM
- TGI (KM12 colon): > 100 µM
- TGI (MOLT-4 leukemia): > 100 µM
- TGI (NCI-H226 lung): > 100 µM
- TGI (NCI-H23 lung): > 100 µM
- TGI (NCI/ADR-RES ovarian): > 100 µM
- TGI (SF-295 CNS): > 100 µM
- TGI (SF-539 CNS): > 100 µM
- TGI (SN12C renal): > 100 µM

Compound: CC(=O)Nc1sc(Br)cc1S(=O)(=O)c1ccc(Cl)cc1
- TGI (DU-145 prostate): > 100 µM
- TGI (HCT-116 colon): > 100 µM
- TGI (KM12 colon): 45.4 µM
- TGI (MOLT-4 leukemia): > 100 µM
- TGI (NCI-H226 lung): 57.1 µM
- TGI (NCI-H23 lung): > 100 µM
- TGI (NCI/ADR-RES ovarian): 52.3 µM
- TGI (SF-295 CNS): > 100 µM
- TGI (SF-539 CNS): 40.6 µM
- TGI (SN12C renal): > 100 µM

Compound: C=C(Cl)C(=CCl)CCC(Br)C(C)(C)Cl (mixture of isomers)
- TGI (DU-145 prostate): > 10 µM
- TGI (HCT-116 colon): > 10 µM
- TGI (KM12 colon): > 10 µM
- TGI (MOLT-4 leukemia): > 10 µM
- TGI (NCI-H226 lung): > 10 µM
- TGI (NCI-H23 lung): > 10 µM
- TGI (NCI/ADR-RES ovarian): > 10 µM
- TGI (SF-295 CNS): > 10 µM
- TGI (SF-539 CNS): > 10 µM
- TGI (SN12C renal): > 10 µM

Compound: CC(C)(C)OC(=O)NC1CCCCC1NC(=O)C(=O)NC1CCCCC1NC(=O)OC(C)(C)C (stereo not given)
- TGI (DU-145 prostate): > 100 µM
- TGI (HCT-116 colon): > 100 µM
- TGI (KM12 colon): > 100 µM
- TGI (MOLT-4 leukemia): > 100 µM
- TGI (NCI-H226 lung): > 100 µM
- TGI (NCI-H23 lung): > 100 µM
- TGI (NCI/ADR-RES ovarian): > 100 µM
- TGI (SF-295 CNS): > 100 µM
- TGI (SF-539 CNS): > 100 µM
- TGI (SN12C renal): > 100 µM

Compound: CN(C)c1ccc(/C=c2/c3ccccc3n3c2c2c([n+]3C)CCCC2)cc1
- TGI (DU-145 prostate): 2.39 µM
- TGI (HCT-116 colon): 0.913 µM
- TGI (KM12 colon): 0.539 µM
- TGI (MOLT-4 leukemia): 1.59 µM
- TGI (NCI-H226 lung): 2.43 µM
- TGI (NCI-H23 lung): 6.49 µM
- TGI (NCI/ADR-RES ovarian): 43.9 µM
- TGI (SF-295 CNS): 0.653 µM
- TGI (SF-539 CNS): 1.42 µM
- TGI (SN12C renal): 1.59 µM

Compound: Fc1ccc2c(c1)nc1n2C(c2c(Cl)cccc2Cl)SC1 (stereo not given)
- TGI (DU-145 prostate): 30.6 µM
- TGI (HCT-116 colon): 18.3 µM
- TGI (KM12 colon): 25.8 µM
- TGI (MOLT-4 leukemia): 52.5 µM
- TGI (NCI-H226 lung): 37.7 µM
- TGI (NCI-H23 lung): 26.2 µM
- TGI (NCI/ADR-RES ovarian): 27.7 µM
- TGI (SF-295 CNS): 26.8 µM
- TGI (SF-539 CNS): 34.8 µM
- TGI (SN12C renal): 31 µM
